In patent US20230399342A1 (Incyte Corporation, priority 2022, published 2023):

Assays:
DGKζ = DGKζ (Homo sapiens (Human), UniProt Q13574); test: In vitro DGKζ inhibition assay (ADP-Glo); format: biochemical; conditions: His-tagged human recombinant enzyme, 0.4 nM DGK, 30 μM ATP, 20 μM DLG, 90 minute incubation
Method in brief: (§1)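 His-tagged human DGKα (0.1 nM, 50 μM ATP) or DGKζ (0.4 nM, 30 μM ATP), each with 20 μM DLG, in Tris pH 7.5 buffer with CHAPS, Mg2+, Ca2+.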

DGKα = DGKα (Homo sapiens (Human), UniProt P23743); test: In vitro DGKα inhibition assay (ADP-Glo); format: biochemical; conditions: His-tagged human recombinant enzyme, 0.1 nM DGKα, 50 μM ATP, 20 μM DLG, 90 minute incubation
Chain of DGKα (P23743 whole entry): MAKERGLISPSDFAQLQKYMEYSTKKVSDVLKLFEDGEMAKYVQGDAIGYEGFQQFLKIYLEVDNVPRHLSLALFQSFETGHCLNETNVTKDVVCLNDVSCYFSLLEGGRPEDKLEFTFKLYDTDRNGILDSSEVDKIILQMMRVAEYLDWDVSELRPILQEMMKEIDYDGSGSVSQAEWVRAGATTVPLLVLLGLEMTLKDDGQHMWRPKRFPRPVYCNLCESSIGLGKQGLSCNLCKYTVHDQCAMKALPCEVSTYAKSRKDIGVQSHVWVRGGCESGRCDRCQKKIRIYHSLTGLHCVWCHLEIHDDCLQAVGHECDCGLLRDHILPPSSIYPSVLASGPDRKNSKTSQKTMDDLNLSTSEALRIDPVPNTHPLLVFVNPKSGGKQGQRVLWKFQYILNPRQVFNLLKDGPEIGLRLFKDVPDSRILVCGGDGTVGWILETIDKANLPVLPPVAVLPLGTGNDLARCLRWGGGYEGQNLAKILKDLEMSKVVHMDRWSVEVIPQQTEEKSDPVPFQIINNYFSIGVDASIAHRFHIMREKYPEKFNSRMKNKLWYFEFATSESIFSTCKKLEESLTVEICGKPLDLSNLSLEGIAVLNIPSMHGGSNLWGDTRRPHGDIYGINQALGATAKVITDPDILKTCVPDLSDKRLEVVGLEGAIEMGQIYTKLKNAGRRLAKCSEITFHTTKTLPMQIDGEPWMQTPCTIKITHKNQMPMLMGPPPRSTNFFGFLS
Method in brief: as §1

Chain of DGKζ (Q13574 whole entry): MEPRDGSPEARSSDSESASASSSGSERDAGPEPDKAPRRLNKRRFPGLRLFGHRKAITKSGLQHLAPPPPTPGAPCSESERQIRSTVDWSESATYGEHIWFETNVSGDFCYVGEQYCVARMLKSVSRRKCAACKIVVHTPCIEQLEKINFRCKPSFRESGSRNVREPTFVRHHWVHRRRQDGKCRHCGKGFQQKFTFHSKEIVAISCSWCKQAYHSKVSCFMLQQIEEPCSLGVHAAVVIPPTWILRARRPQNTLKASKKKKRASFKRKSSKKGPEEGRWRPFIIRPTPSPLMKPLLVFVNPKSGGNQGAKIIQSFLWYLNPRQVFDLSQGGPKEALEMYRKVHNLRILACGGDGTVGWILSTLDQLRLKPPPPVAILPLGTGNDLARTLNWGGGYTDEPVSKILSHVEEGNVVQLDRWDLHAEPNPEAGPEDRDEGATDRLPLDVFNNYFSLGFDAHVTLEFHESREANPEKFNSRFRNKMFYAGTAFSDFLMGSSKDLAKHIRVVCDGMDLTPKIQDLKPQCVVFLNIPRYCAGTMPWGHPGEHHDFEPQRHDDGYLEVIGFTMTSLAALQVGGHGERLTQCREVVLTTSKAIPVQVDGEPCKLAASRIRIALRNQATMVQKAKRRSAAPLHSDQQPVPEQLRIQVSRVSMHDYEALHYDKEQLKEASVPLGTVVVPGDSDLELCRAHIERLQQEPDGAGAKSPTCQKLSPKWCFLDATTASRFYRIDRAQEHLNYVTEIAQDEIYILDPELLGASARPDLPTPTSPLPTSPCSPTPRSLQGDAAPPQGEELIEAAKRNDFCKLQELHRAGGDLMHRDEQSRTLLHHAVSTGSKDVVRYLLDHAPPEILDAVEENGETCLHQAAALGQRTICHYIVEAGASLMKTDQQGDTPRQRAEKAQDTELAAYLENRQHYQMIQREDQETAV

SMILES	IC50 (DGKζ) [nM]	IC50 (DGKα) [nM]
Cc1nc2c(N3C[C@@H](C)N([C@H](c4cccc(C(F)(F)F)c4)C(C)C)C[C@@H]3C)nc3nncn3c2n1C[C@@H]1CCCO1 [Example 69, 4-((2S,5R)-2,5-Dimethyl-4-((S)-2-methyl-1-(3-(trifluoromethyl)phenyl)propyl)piperazin-1-yl)-2-methyl-1-(((S)-tetrahydrofuran-2-yl)methyl)-1H-[1,2,4]triazolo[3,4-b]purine]	≤ 20	≤ 20
Cc1nc2c(N3C[C@@H](C)N(C(c4ccc(Cl)c(F)c4)C4CC(F)(F)C4)C[C@@H]3C)nc3nncn3c2n1C[C@@H]1CCCO1 (single isomer, unassigned) [Example 50]	≤ 20	≤ 20
Cc1nc2c(N3C[C@@H](C)N([C@H](c4ccc(OC(F)F)cc4)C(C)C)C[C@@H]3C)nc3nncn3c2n1C[C@@H]1CCCO1 [Example 79, 4-((2S,5R)-4-((S)-1-(4-(Difluoromethoxy)phenyl)-2-methylpropyl)-2,5-dimethylpiperazin-1-yl)-2-methyl-1-(((S)-tetrahydrofuran-2-yl)methyl)-1H-[1,2,4]triazolo[3,4-b]purine]	≤ 20	≤ 20
Cc1nc2c(N3C[C@@H](C)N(C(c4ccc(C(F)(F)F)cc4)[C@H]4C[C@H](C(F)(F)F)C4)C[C@@H]3C)nc3nncn3c2n1C[C@@H]1CCCO1 (stereo partly drawn) [Example 115, 4-((2S,5R)-2,5-Dimethyl-4-(((trans)-3-(trifluoromethyl)cyclobutyl)(4-(trifluoromethyl)phenyl)methyl)piperazin-1-yl)-2-methyl-1-(((S)-tetrahydrofuran-2-yl)methyl)-1H-[1,2,4]triazolo[3,4-b]purine]	≤ 20	≤ 20
Cc1nc2c(N3C[C@@H](C)N(C(c4ccc(F)c(Cl)c4)C4CC(F)(F)C4)C[C@@H]3C)nc3nncn3c2n1C[C@@H]1CCCO1 (single isomer, unassigned) [Example 44]	≤ 20	≤ 20
Cc1nc2c(N3C[C@@H](C)N(C(c4ccc(F)c(C(F)F)c4)C4CC(F)(F)C4)C[C@@H]3C)nc3nncn3c2n1C[C@@H]1CCCO1 (stereo partly drawn) [Example 54, 4-((2S,5R)-4-((3,3-Difluorocyclobutyl)(3-(difluoromethyl)-4-fluorophenyl)methyl)-2,5-dimethylpiperazin-1-yl)-2-methyl-1-(((S)-tetrahydrofuran-2-yl)methyl)-1H-[1,2,4]triazolo[3,4-b]purine]	≤ 20	≤ 20
Cc1nc2c(N3C[C@@H](C)N(C(c4ccc(F)c(C(F)(F)F)c4)C(C)C)C[C@@H]3C)nc3nncn3c2n1C[C@@H]1CCCO1 (stereo partly drawn) [Example 84, 4-((2S,5R)-4-(1-(4-Fluoro-3-(trifluoromethyl)phenyl)-2-methylpropyl)-2,5-dimethylpiperazin-1-yl)-2-methyl-1-(((S)-tetrahydrofuran-2-yl)methyl)-1H-[1,2,4]triazolo[3,4-b]purine]	≤ 20	≤ 20
CC(C)[C@@H](c1ccc(Cl)cc1)N1C[C@H](C)N(c2nc3nncn3c3c2ncn3CCN(C)C)C[C@H]1C [Example 90, 2-(4-((2S,5R)-4-((S)-1-(4-Chlorophenyl)-2-methylpropyl)-2,5-dimethylpiperazin-1-yl)-1H-[1,2,4]triazolo[3,4-b]purin-1-yl)-N,N-dimethylethan-1-amine]	≤ 20	≤ 20
C[C@@H]1CN(c2nc3nncn3c3c2ncn3CCN(C)C)[C@@H](C)CN1C(c1ccc(Br)cc1)c1ccc(Br)cc1 [Example 109, 2-(4-((2S,5R)-4-(Bis(4-bromophenyl)methyl)-2,5-dimethylpiperazin-1-yl)-1H-[1,2,4]triazolo[3,4-b]purin-1-yl)-N,N-dimethylethan-1-amine]	≤ 20	≤ 20
Cc1nc2c(N3C[C@@H](C)N(C(c4ccc(C(F)F)c(F)c4)C(C)C)C[C@@H]3C)nc3nncn3c2n1C[C@@H]1CCCO1 (single isomer, unassigned) [Example 81]	≤ 20	≤ 20
Cc1nc2c(N3C[C@@H](C)N([C@@H](c4ccc(C(F)(F)F)cc4F)C(C)C)C[C@@H]3C)nc3nncn3c2n1C[C@@H]1CCCO1 [Example 72, 4-((2S,5R)-4-((R)-1-(2-fluoro-4-(trifluoromethyl)phenyl)-2-methylpropyl)-2,5-dimethylpiperazin-1-yl)-2-methyl-1-(((S)-tetrahydrofuran-2-yl)methyl)-1H-[1,2,4]triazolo[3,4-b]purine]	≤ 20	≤ 20
C[C@@H]1CN(c2nc3nncn3c3c2ncn3CCN(C)C)[C@@H](C)CN1C(c1ccc(C(F)(F)F)cc1)[C@H]1C[C@H](C(F)(F)F)C1 (stereo partly drawn) [Example 116, 2-(4-((2S,5R)-2,5-Dimethyl-4-(((trans)-3-(trifluoromethyl)cyclobutyl)(4-(trifluoromethyl)phenyl)methyl)piperazin-1-yl)-1H-[1,2,4]triazolo[3,4-b]purin-1-yl)-N,N-dimethylethan-1-amine]	≤ 20	≤ 20
Cc1nc2c(N3C[C@@H](C)N(C(c4ccc(F)c(Cl)c4)[C@H]4C[C@H](C(F)(F)F)C4)C[C@@H]3C)nc3nncn3c2n1C[C@@H]1CCCO1 (stereo partly drawn) [Example 113, 4-((2S,5R)-4-((3-Chloro-4-fluorophenyl)((trans)-3-(trifluoromethyl)cyclobutyl)methyl)-2,5-dimethylpiperazin-1-yl)-2-methyl-1-(((S)-tetrahydrofuran-2-yl)methyl)-1H-[1,2,4]triazolo[3,4-b]purine]	≤ 20	≤ 20

Further lines, results first:

IC50 (DGKζ) [nM]	IC50 (DGKα) [nM]	SMILES
≤ 20	≤ 20	Cc1nc2c(N3C[C@@H](C)N(C(c4ccc(Br)cc4)c4ccc(F)c(Cl)c4)C[C@@H]3C)nc3nncn3c2n1C[C@@H]1CCCO1 (single isomer, unassigned) [Example 141]
≤ 20	≤ 20	C[C@@H]1CN(c2nc3nncn3c3c2nnn3C[C@H]2CCCO2)[C@@H](C)CN1C(c1ccc(Cl)cc1)c1ccc(Cl)cc1 [Example 106, 4-((2S,5R)-4-(Bis(4-chlorophenyl)methyl)-2,5-dimethylpiperazin-1-yl)-1-(((R)-tetrahydrofuran-2-yl)methyl)-1H-[1,2,3]triazolo[4,5-e][1,2,4]triazolo[4,3-a]pyrimidine]
≤ 20	≤ 20	CC[C@@H]1CN(c2nc3nncn3c3c2nnn3C[C@@H]2CCCO2)[C@@H](C)CN1C(c1ccc(Cl)cc1)c1ccc(Cl)cc1 [Example 39, 4-((2S,5R)-4-(Bis(4-chlorophenyl)methyl)-5-ethyl-2-methylpiperazin-1-yl)-1-(((S)-tetrahydrofuran-2-yl)methyl)-1H-[1,2,3]triazolo[4,5-e][1,2,4]triazolo[4,3-a]pyrimidine]
≤ 20	≤ 20	C[C@@H]1CN(c2nc3nncn3c3c2nnn3C[C@H]2CCCO2)[C@@H](C)CN1C(c1ccc(F)cc1)c1ccc(F)cc1 [Example 29, 4-((2S,5R)-4-(Bis(4-fluorophenyl)methyl)-2,5-dimethylpiperazin-1-yl)-1-(((R)-tetrahydrofuran-2-yl)methyl)-1H-[1,2,3]triazolo[4,5-e][1,2,4]triazolo[4,3-a]pyrimidine]
≤ 20	≤ 20	Cc1nc2c(N3C[C@@H](C)N(C(c4ccc(Br)cc4)C4CC(F)(F)C4)C[C@@H]3C)nc3nncn3c2n1C[C@@H]1CCCO1 (stereo partly drawn) [Example 61, 4-((2S,5R)-4-((4-Bromophenyl)(3,3-difluorocyclobutyl)methyl)-2,5-dimethylpiperazin-1-yl)-2-methyl-1-(((S)-tetrahydrofuran-2-yl)methyl)-1H-[1,2,4]triazolo[3,4-b]purine]
≤ 20	≤ 20	Cc1nc2c(N3C[C@@H](C)N([C@H](c4ccc(C(F)F)cc4)C(C)C)C[C@@H]3C)nc3nncn3c2n1C[C@@H]1CCCO1 [Example 73, 4-((2S,5R)-4-((S)-1-(4-(Difluoromethyl)phenyl)-2-methylpropyl)-2,5-dimethylpiperazin-1-yl)-2-methyl-1-(((S)-tetrahydrofuran-2-yl)methyl)-1H-[1,2,4]triazolo[3,4-b]purine]
≤ 20	≤ 20	CC[C@@H]1CN(c2nc3nncn3c3c2nc(C)n3C[C@H]2CCCO2)[C@@H](C)CN1C(c1ccc(Cl)cc1)c1ccc(Cl)cc1 [Example 42, 4-((2S,5R)-4-(Bis(4-chlorophenyl)methyl)-5-ethyl-2-methylpiperazin-1-yl)-2-methyl-1-(((R)-tetrahydrofuran-2-yl)methyl)-1H-[1,2,4]triazolo[3,4-b]purine]
≤ 20	≤ 20	C[C@H]1CN(C(c2ccc(F)cc2)c2ccc(F)cc2)[C@H](CC#N)CN1c1nc2nncn2c2c1ncn2C [Example 16, 2-((2R,5S)-1-(Bis(4-fluorophenyl)methyl)-5-methyl-4-(1-methyl-1H-[1,2,4]triazolo[3,4-b]purin-4-yl)piperazin-2-yl)acetonitrile]
> 2000	≤ 20	C[C@@H]1CN(c2nc3nncn3c3c2cnn3C)[C@@H](C)CN1C(c1ccc(F)cc1)c1ccc(F)cc1 [Example 6, 4-((2S,5R)-4-(Bis(4-fluorophenyl)methyl)-2,5-dimethylpiperazin-1-yl)-1-methyl-1H-pyrazolo[4,3-e][1,2,4]triazolo[4,3-a]pyrimidine]
≤ 20	≤ 20	CC[C@@H]1CN(c2nc3nncn3c3c2nnn3C[C@@H]2CCCO2)[C@@H](C)CN1C(c1ccc(F)cc1)c1ccc(F)cc1 [Example 30, 4-((2S,5R)-4-(Bis(4-fluorophenyl)methyl)-5-ethyl-2-methylpiperazin-1-yl)-1-(((S)-tetrahydrofuran-2-yl)methyl)-1H-[1,2,3]triazolo[4,5-e][1,2,4]triazolo[4,3-a]pyrimidine]
